Test: gradient 5% acetonitrile 3 min, to 50% in 2 min, to 85% in 15 min, held 3 min, 100 µL/min
Conditions: column: Zorbax Extend-C18 2.1 x 50 mm; eluents: water / acetonitrile, 0.1% formic acid
Outline: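 The system's dead and dwell volumes were 40 μL and 900 μL, with a Zorbax Extend-C18 column (2.1 × 50 mm, 1.8 μm) run at 100 μL/min in water and acetonitrile containing 0.1% formic acid each. Pure standards were analyzed in mixtures of ~100 molecules by HPLC–quadrupole time-of-flight mass spectrometry in positive and negative ionization mode. Retention time was assigned from computationally picked, manually inspected adduct peaks.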

Structure (SMILES)	RP-LC retention time [s]
CCn1c(=O)c2cc(C(=O)NCc3cc(C)ccc3C)nn2c2ccccc21	930
COc1cc(NS(=O)(=O)c2c(C)nn(-c3ccc(-c4ccc(C)cc4)nn3)c2C)cc(OC)c1	1120
CC(C)n1c(=O)oc2cc(-c3noc(-c4cccc(F)c4)n3)ccc21	1200
Cc1ccc(F)cc1NC(=O)Cn1nc2cc(-c3ccccc3)nc(C)n2c1=O	972
CSCC(=O)N1CCC(C2CCN(C(C)=O)CC2)C1 (stereo unspecified)	624
O=C1NC2(CCN(C(=O)NCc3ccc(F)cc3)CC2)Nc2cc(Cl)ccc21	740
CCOC(=O)c1ccc(N2C(=O)[C@@H]3Cc4ccccc4CN3C2=O)cc1	970
Cc1nc(-c2ccccc2)nn1C1CCN(S(=O)(=O)c2ccc(Cl)s2)C1 (stereo unspecified)	902
CCOC(=O)c1ccc(N2C(=O)CC(NCCCN3CCN(CC)CC3)C2=O)cc1 (stereo unspecified)	636
Cc1ccc(C)c(N2CCN(C(=O)C3CCN(S(=O)(=O)c4cccc5nsnc45)CC3)CC2)c1	1070
Cc1ccc(-c2nc3ncccn3c2Nc2ccc(C)c(Cl)c2)cc1	910
CCn1cnc(S(=O)(=O)N2CCC(C(=O)NCc3cccc(C)c3)CC2)c1	721
Cn1cnc2cc(CNC(=O)c3cccs3)ccc21	571
Cc1cccc2nnc(N3CCN(C(=O)c4ccc(Br)cc4)CC3)n12	683
O=C(NC1CC1)c1ccc(OCC2CCN(C(=O)c3cc(F)ccc3Cl)CC2)cc1	839
CCNC(=O)C1Cc2cc(C(F)(F)F)ccc2N2CCN(Cc3ccc(F)cc3)CC12 (stereo unspecified)	610
O=C(Cn1cnc2nc(N3CCC(C(=O)NC4CC4)CC3)sc2c1=O)NCc1ccco1	610
NC(=O)C1CCN(C(=O)CN2CCN(c3cccc(Cl)c3)CC2)CC1	600
CC1CCCN(S(=O)(=O)c2cc(C(=O)NCCC3=CCCCC3)n(C)c2)C1 (stereo unspecified)	1140
O=C(Cn1cc(-c2nc(-c3ccc(Cl)cc3)no2)ccc1=O)Nc1ccc2c(c1)OCO2	986
Cc1ccc(C)c(-c2cc3c4nn(CC(=O)N(C)c5ccccc5)c(=O)n4ccn3n2)c1	1010
CCc1cccc(N2C(=O)CN(S(C)(=O)=O)CC2(C)C(=O)NCc2ccccc2)c1 (stereo unspecified)	804

Structure (SMILES)	RP-LC retention time [s]
Cc1cccc(C)c1OCC(N)C(C)C (stereo unspecified)	728
O=C(NC1CCCCC1)C1CCCN(c2nnc3ccc(Cl)cn23)C1 (stereo unspecified)	778
CCOC(=O)c1noc2nc(C)nc(Nc3cccc(C)c3)c12	1170
Cc1ccccc1S(=O)(=O)NC1CCN(c2ccc(=O)n(C)n2)C1 (stereo unspecified)	705
CCOc1ccc(-c2ccc(=O)n(CCc3nc(-c4ccccc4)no3)n2)cc1	1000
COc1ccc(CCNC(=O)NC(C)Cc2cccs2)cc1 (stereo unspecified)	781
CC1=C(c2ccccc2)S(=O)(=O)N=C1N1CCCN(C(=O)C2CCCCC2)CC1	868
CC(=O)Nc1ccc(SCCCC(=O)Nc2cccc(C)n2)nn1	562
Cc1oc(-c2[nH]ncc2C(=O)N(C)C)cc1S(=O)(=O)Nc1ccc(F)c(Cl)c1	740
CC(C)(C)c1noc(-c2ccnc(-n3cnc(C(=O)NC4CC4)c3)c2)n1	877
Cc1ccc(C)c(OCC(O)Cn2c(C3CC3)nc3ccccc32)c1 (stereo unspecified)	731
Cc1cc(-c2nnc(-c3ccccc3)o2)c(C)n1CC(=O)NCc1cccs1	900
Fc1ccccc1N1CCN(c2ncc3c(n2)CCN(Cc2ccc4c(c2)OCCO4)C3)CC1	779
COCCCNC(=O)c1nc2cccnc2n(CC(C)C)c1=O	728
COc1ccc(CCC(=O)NCC(=O)Nc2nc3ccccc3[nH]2)cc1	639
O=C(Cn1cccc1-c1nc(-c2ccc3c(c2)OCO3)no1)N1CCCc2ccccc21	1120
Cc1nc(-c2ccc(-c3noc(CN4C(=O)COc5ccc(Cl)cc54)n3)cc2)cs1	1150
CCC(=O)N1c2ccc(S(=O)(=O)N3CCCCC3)cc2CC1C(=O)NC1CCCC1 (stereo unspecified)	883
Cc1sc(NC(=O)c2ccc(S(=O)(=O)N(C)C)cc2)nc1-c1ccc2c(c1)N(C)C(=O)CO2	938
Cc1ccccc1CNC(=O)C1(C)CCCN(C(=O)NCc2ccc(F)cc2)C1 (stereo unspecified)	890
Cc1ccc(C)c(-c2csc(NC(=O)c3ccc4c(c3)OCO4)n2)c1	1140
Cc1nc(C(=O)NCc2ccccc2C(F)(F)F)c(C)o1	917

Structure (SMILES)	RP-LC retention time [s]
COc1ccc(-c2nc(C)cc(C)c2CNC(=O)c2ccco2)cc1	585
CCOCC(=O)N1CCOc2ccc(N(C)C)cc2C1	566
CCn1cnc(S(=O)(=O)N2CCC(C(=O)Nc3ccc(C)c(N(C)C)c3)CC2)c1	588
Cc1ccc(F)cc1S(=O)(=O)N1CCC2(C1)C(=O)N(C)c1ccccc12 (stereo unspecified)	955
Cc1ccc(S(=O)(=O)Nc2cccc(-c3cn4cccc(C)c4n3)c2)c(C)c1	703
CCC(=O)Nc1ccc(CCc2nc3ccc(C(=O)NC(C)c4ccccc4)cc3[nH]2)cc1 (stereo unspecified)	658
CCn1c(=O)c2cc(C(=O)NCc3ccccc3C(F)(F)F)nn2c2ccccc21	1000
CCCC(=O)Nc1ccc2c(c1)CN(C(=O)Cc1cccs1)C(C(=O)N(C)C)C2 (stereo unspecified)	690
Cc1cc(Cl)ccc1OCC(=O)N1CCCCC1c1nncn1C (stereo unspecified)	767
COCC(=O)Nc1cc2c(cc1N(C)C)n(C)c(=O)c(=O)n2C	606
O=C(NC1CCN(c2cc(-c3cccs3)[nH]n2)C1)c1ccc2[nH]ccc2c1 (stereo unspecified)	672
O=C(Cc1nnc(-c2cnccn2)o1)Nc1ccc(C(F)(F)F)cc1	766
COc1cccc(C(=O)N2CCCn3nc(-c4cccs4)cc3C2)c1OC	798
CCc1ccccc1N1C(=O)CN(S(=O)(=O)CC)CC1(C)C(=O)NCc1ccccc1 (stereo unspecified)	860
CC1=NS(=O)(=O)c2cccnc2N1c1ccc(Br)cc1	836
CCCCOP(=O)(OCCCC)C1(C)CC(=O)CC(C)(C)C1 (stereo unspecified)	1100
CCNC(=O)Nc1ccc2c(c1)CN(Cc1scnc1C)CCO2	566
COc1ccc(-c2noc(-c3cccn(CC(=O)Nc4ccc5c(c4)OCO5)c3=O)n2)cc1OC	741
CSc1ccc(NC(=O)C2CC(=O)N(c3ccc4c(c3)CCN4C(C)=O)C2)cc1 (stereo unspecified)	730
O=c1ccc(-c2cccc(Cl)c2)nn1CCc1nc(-c2cccnc2)no1	805
O=c1ncn2nc(Sc3ccc(F)cc3F)ccc2c1-c1c(Cl)cccc1Cl	894
O=C1Cc2cc(NC(=O)Nc3ccc(Cl)c(Cl)c3)ccc2N1	742
